Experimental data reported in PubChem BioAssay (NCI).
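Test compounds were applied to cells in 96-well plates for 48 hours at 5 doses. At the TGI there is no net growth.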

Tests used:
Test in all cases: NCI-60 cell line screen, 48 h
NCI-H23 lung = system: NCI-H23 lung
A549 NSCLC = system: A549 NSCLC
CCRF-CEM leukemia = system: CCRF-CEM leukemia
SNB-19 CNS = system: SNB-19 CNS
CAKI-1 renal = system: CAKI-1 renal
RXF 393 renal = system: RXF 393 renal
SW-620 colon = system: SW-620 colon
IGROV1 ovarian = system: IGROV1 ovarian
HOP-62 NSCLC = system: HOP-62 NSCLC
NCI-H522 lung = system: NCI-H522 lung
HS 578T breast = system: HS 578T breast
UACC-257 melanoma = system: UACC-257 melanoma
KM12 colon = system: KM12 colon
786-0 renal = system: 786-0 renal
MCF7 breast = system: MCF7 breast
COLO 205 colon = system: COLO 205 colon
NCI-H460 lung = system: NCI-H460 lung
SNB-75 CNS = system: SNB-75 CNS
MDA-MB-435 = system: MDA-MB-435
DMS 273 small cell lung = system: DMS 273 small cell lung

| Structure (SMILES) | TGI (NCI-H23 lung) [µM] | TGI (A549 NSCLC) [µM] | TGI (CCRF-CEM leukemia) [µM] | TGI (SNB-19 CNS) [µM] | TGI (CAKI-1 renal) [µM] | TGI (RXF 393 renal) [µM] | TGI (SW-620 colon) [µM] | TGI (IGROV1 ovarian) [µM] | TGI (HOP-62 NSCLC) [µM] | TGI (NCI-H522 lung) [µM] | TGI (HS 578T breast) [µM] | TGI (UACC-257 melanoma) [µM] | TGI (KM12 colon) [µM] | TGI (786-0 renal) [µM] | TGI (MCF7 breast) [µM] | TGI (COLO 205 colon) [µM] | TGI (NCI-H460 lung) [µM] | TGI (SNB-75 CNS) [µM] | TGI (MDA-MB-435) [µM] | TGI (DMS 273 small cell lung) [µM] |
| --- | --- | --- | --- | --- | --- | --- | --- | --- | --- | --- | --- | --- | --- | --- | --- | --- | --- | --- | --- | --- |
| [O-][n+]1onc2c1CCC(=N\O)/C2=N/Nc1ccccc1 | > 100 | > 100 | > 100 | > 100 | > 100 | > 100 | > 100 | > 100 | > 100 | > 100 | > 100 | > 100 | > 100 | > 100 | > 100 | > 100 | > 100 | > 100 | > 100 | – |
| O=C1c2ccccc2C(=O)[C@@]23O[C@@]12C1(Oc2cccc4cccc(c24)O1)[C@@H]1O[C@@H]1[C@@H]3O | 29.6 | > 49 | > 38.7 | 28.8 | 24.5 | 10.4 | > 49.1 | 27.4 | 25.7 | 15.6 | 51.8 | 40.1 | 27.3 | 11.6 | 14.6 | 27 | 23.6 | 24 | > 59.6 | – |
| O=c1[nH]/c(=C/c2ccc(OCc3ccccc3)cn2)c(=O)[nH]/c1=C/c1ccc([N+](=O)[O-])cc1 | > 100 | > 100 | > 100 | > 100 | > 73.1 | > 100 | > 100 | > 100 | > 100 | > 100 | > 78.4 | > 100 | > 100 | > 100 | > 100 | > 100 | > 100 | 70.2 | > 100 | – |
| CC(=O)Nc1ccc(NC(=O)c2c(Cl)c(Cl)c(Cl)c(Cl)c2-c2nc3ccccc3[nH]2)cc1 | > 100 | > 100 | > 100 | > 100 | > 100 | 81.5 | > 100 | > 100 | > 100 | > 100 | > 100 | > 100 | > 100 | > 100 | > 100 | 39.8 | > 100 | > 100 | > 100 | – |
| COC(=O)N1CCc2c(nc(N(C)CCO)[nH]c2=O)C1 | > 100 | > 100 | > 100 | > 100 | > 100 | > 100 | > 100 | > 100 | > 100 | > 100 | – | > 100 | > 100 | > 100 | – | > 100 | > 100 | > 100 | – | > 100 |
| CC(C)CC1C(=O)NCCC(NC(=O)C(N)Cc2ccc(O)cc2)C(=O)NC(Cc2ccccc2)C(=O)NC(Cc2ccccc2)NC1=O (configuration not stated) | > 100 | > 100 | > 100 | > 100 | > 100 | > 100 | > 100 | > 100 | > 100 | > 100 | > 100 | > 100 | > 100 | > 100 | > 100 | > 100 | > 100 | > 100 | > 100 | – |
